Data as given in patent publication US20230146239A1 (THE SCRIPPS RESEARCH INSTITUTE, priority 2020, published 2023).
Converted amounts (≈) assume the structure as drawn. Where two headings read alike, the source gives them in different places.

Tests used:
[1] = test system: VanA E. faecalis (BM 4166); test: In vitro antimicrobial microdilution assay (MIC); type: cell-based, Enterococcus faecalis
[2] = test system: VanA E. faecium (ATCC BAA-2317); test: In vitro antimicrobial microdilution assay (MIC); type: cell-based, Enterococcus faecium
[3] = test system: VanA E. faecalis (ATCC BAA-2573); test: In vitro antimicrobial microdilution assay (MIC); type: cell-based, Enterococcus faecalis
[4] = test system: VanA E. faecium (TX2465); test: In vitro antimicrobial microdilution assay (MIC); type: cell-based, Enterococcus faecium
[5] = test system: VanA VRE E. faecalis BM 4166 and E. faecium ATCC BAA-2317; type: cell-based, Enterococcus faecalis, Enterococcus faecium; conditions: 10 μM added at 5 minutes
Method: The above bacterial solution was subjected to a subculture to obtain fresh mid-log phase bacterial cells (incubation time=6 hours). The bacterial suspension was diluted to a total volume of 7 mL with OD600=0.6.
After the cultured bacteria were harvested (3000 rpm, 4° C., 20 minutes), the white bacterial precipitate was washed and resuspended in 5 mM glucose and 5 mM HEPES buffer (1:1, 5.00 mL, pH=7.2).

[6] = test system: two VanA VRE strains (E. faecalis BM4166, E. faecium ATCC BAA-2317); test: Resistance development assay, durability (serial passaging at 0.5×MIC); type: cell-based, Enterococcus faecalis, Enterococcus faecium; conditions: 50 passages
Method: The lowest concentration of antibiotic (in μg/mL) capable of eliminating cell growth in the wells is the reported MIC value.
A new MIC assay was performed with the same protocol above. This process was repeated for 50 passages, and the fold increase in MIC was determined after each passage.

[7] = test system: VanA VRE E. faecalis (BM 4166); test: Impact of added LTA, phosphate, POPE on antimicrobial activity (MIC); type: cell-based, Enterococcus faecalis
Method: When NaH2PO4 or POPE was used instead of LTA, 10% brain-heart infusion broth containing 0.002% Tween®-80 with 100 μg/mL NaH2PO4 or 100 μg/mL POPE was used as the culture medium used for serial dilution. When additional G3 (H2N^+(CH2)3NHC(NH2)═NH2^+.2TFA) or Mg^2+ was used, 10% brain-heart infusion broth containing 0.002% Tween®-80 with 100 μg/mL G3 or 100 μg/mL MgCl2 and 100 μg/mL lipoteichoic acid was used as the culture medium for serial dilution of study group, 10% brain-heart infusion broth containing 0.002% Tween®-80 with 100 μg/mL G3 was used as the culture medium for serial dilution of control group.

Compound | MIC, VanA E. faecalis BM 4166 [1] [µg/mL] | MIC, VanA E. faecium ATCC BAA-2317 [2] [µg/mL] | MIC, VanA E. faecalis ATCC BAA-2573 [3] [µg/mL] | MIC, VanA E. faecium TX2465 [4] [µg/mL] | also measured
CN[C@H](CC(C)C)C(=O)N[C@H]1C(=O)N[C@@H](CC(N)=O)C(=O)N[C@H]2C(=O)N[C@H]3C(=O)N[C@H](C(=O)N[C@H](C(=O)N[C@@H](CCCNC(=N)N)C(=O)OC)c4cc(O)c(CN[C@@H](CCCNC(=N)N)C(=O)OC)c(O)c4-c4cc3ccc4O)[C@H](O)c3ccc(c(Cl)c3)Oc3cc2cc(c3OC2OC(CO)C(O)[C@H](O)C2O[C@H]2CC(C)(N)[C@H](O)[C@H](C)O2)Oc2ccc(cc2Cl)[C@H]1O (some centres unmarked) [Compound 28, Arg(OMe)-Arg(OMe)^Ar-vancomycin] |  |  |  |  | MIC ([1]; Enterococcus faecalis; read-out: MIC, VanA E. faecalis BM 4166): 8 µg/mL (≈ 4.4 µM); MIC ([2]; Enterococcus faecium, ATCCBAA2317; read-out: MIC, VanA E. faecium ATCC BAA-2317): 2 µg/mL (≈ 1.1 µM); MIC ([3]; Enterococcus faecalis, ATCCBAA2573, read-out: MIC, VanA E. faecalis ATCC BAA-2573): 1 µg/mL (≈ 0.55 µM); MIC ([4]; Enterococcus faecium, read-out: MIC, VanA E. faecium TX2465): 8 µg/mL (≈ 4.4 µM)
CN[C@H](CC(C)C)C(=O)N[C@H]1C(=O)N[C@@H](CC(N)=O)C(=O)N[C@H]2C(=O)NC3C(=O)N[C@H](C(=O)N[C@H](C(=O)NCCCCNC(=N)N)c4cc(O)cc(O)c4-c4cc3ccc4O)[C@H](O)c3ccc(c(Cl)c3)Oc3cc2cc(c3OC2OC(CO)C(O)[C@H](O)[C@@H]2O[C@H]2CC(C)(N)[C@H](O)[C@H](C)O2)Oc2ccc(cc2Cl)[C@H]1O (some centres unmarked) [Compound 7, G4-vancomycin] | 16 (≈ 10.2 µM) | 4 (≈ 2.56 µM) | 4 (≈ 2.56 µM) | 16 (≈ 10.2 µM) | 
CN[C@H](CC(C)C)C(=O)N[C@H]1C(=O)N[C@@H](CC(N)=O)C(=O)N[C@H]2C(=O)NC3C(=O)N[C@H](C(=O)N[C@H](C(=O)NCCNC(=N)N)c4cc(O)cc(O)c4-c4cc3ccc4O)[C@H](O)c3ccc(c(Cl)c3)Oc3cc2cc(c3OC2OC(CO)C(O)[C@H](O)[C@@H]2O[C@H]2CC(C)(N)[C@H](O)[C@H](C)O2)Oc2ccc(cc2Cl)[C@H]1O (some centres unmarked) [Compound 6, G2-vancomycin] | 16 (≈ 10.4 µM) | 4 (≈ 2.61 µM) | 8 (≈ 5.22 µM) | 16 (≈ 10.4 µM) | 
CN[C@H](CC(C)C)C(=O)N[C@H]1C(=O)N[C@@H](CC(N)=O)C(=O)N[C@H]2C(=O)N[C@H]3C(=O)N[C@H](C(=O)N[C@H](C(=O)N[C@@H](CCCNC(N)=O)C(=O)OC)c4cc(O)cc(O)c4-c4cc3ccc4O)[C@H](O)c3ccc(c(Cl)c3)Oc3cc2cc(c3OC2OC(CO)C(O)[C@H](O)C2O[C@H]2CC(C)(NCc3ccc(-c4ccc(Cl)cc4)cc3)[C@H](O)[C@H](C)O2)Oc2ccc(cc2Cl)[C@H]1O (some centres unmarked) [Compound 23, Cit(OMe)-CBP-vancomycin] |  |  |  |  | bacterial cell membrane permeabilization [5]: reduced bacteria cell permeabilization
CN[C@H](CC(C)C)C(=O)N[C@H]1C(=O)N[C@@H](CC(N)=O)C(=O)N[C@H]2C(=O)NC3C(=O)N[C@H](C(=O)N[C@H](C(=O)NC(CNC(=N)N)CNC(=N)N)c4cc(O)cc(O)c4-c4cc3ccc4O)[C@H](O)c3ccc(c(Cl)c3)Oc3cc2cc(c3OC2OC(CO)C(O)[C@H](O)[C@@H]2O[C@H]2CC(C)(N)[C@H](O)[C@H](C)O2)Oc2ccc(cc2Cl)[C@H]1O (some centres unmarked) [Compound 14, DiG-vancomycin] | 8 (≈ 4.99 µM) | 1 (≈ 0.623 µM) | 2 (≈ 1.25 µM) | 4 (≈ 2.49 µM) | 
CN[C@H](CC(C)C)C(=O)N[C@H]1C(=O)N[C@@H](CC(N)=O)C(=O)N[C@H]2C(=O)NC3C(=O)N[C@H](C(=O)N[C@H](C(=O)N[C@@H](CCCNC(N)=O)C(=O)OC)c4cc(O)cc(O)c4-c4cc3ccc4O)[C@H](O)c3ccc(c(Cl)c3)Oc3cc2cc(c3OC2OC(CO)C(O)[C@H](O)[C@@H]2O[C@H]2CC(C)(N)[C@H](O)[C@H](C)O2)Oc2ccc(cc2Cl)[C@H]1O (some centres unmarked) [Compound 13, Cit(OMe)-vancomycin] | 63 (≈ 38.9 µM) | 31 (≈ 19.1 µM) | 16 (≈ 9.87 µM) | 63 (≈ 38.9 µM) | 
CCCCCCCCCC(=O)N[C@@H](Cc1c[nH]c2ccccc12)C(=O)N[C@H](CC(N)=O)C(=O)N[C@@H](CC(=O)O)C(=O)N[C@@H]1C(=O)NCC(=O)N[C@@H](CCCN)C(=O)N[C@@H](CC(=O)O)C(=O)N[C@H](C)C(=O)N[C@@H](CC(=O)O)C(=O)NCC(=O)N[C@H](CO)C(=O)N[C@@H]([C@H](C)CC(=O)O)C(=O)N[C@@H](CC(=O)c2ccccc2N)C(=O)O[C@@H]1C [daptomycin] |  |  |  |  | resistance acquisition on serial passaging [6]: raise resistance more rapidly and in a more pronounced manner
CN[C@H](CC(C)C)C(=O)N[C@H]1C(=O)N[C@@H](CC(N)=O)C(=O)N[C@H]2C(=O)NC3C(=O)N[C@H](C(=O)N[C@H](C(=O)N[C@@H](CCCNC(=N)N)C(N)=O)c4cc(O)cc(O)c4-c4cc3ccc4O)[C@H](O)c3ccc(c(Cl)c3)Oc3cc2cc(c3OC2OC(CO)C(O)[C@H](O)[C@@H]2O[C@H]2CC(C)(N)[C@H](O)[C@H](C)O2)Oc2ccc(cc2Cl)[C@H]1O (some centres unmarked) [Compound 12, Arg(NH2)-vancomycin] | 16 (≈ 9.97 µM) | 4 (≈ 2.49 µM) | 4 (≈ 2.49 µM) | 8 (≈ 4.99 µM) | 
CN[C@H](CC(C)C)C(=O)N[C@H]1C(=O)N[C@@H](CC(N)=O)C(=O)N[C@H]2C(=O)NC3C(=O)N[C@H](C(=O)N[C@H](C(=O)N[C@@H](CCCNC(=N)N)C(=O)OC)c4cc(O)cc(O)c4-c4cc3ccc4O)[C@H](O)c3ccc(c(Cl)c3)Oc3cc2cc(c3OC2OC(CO)C(O)[C@H](O)[C@@H]2O[C@H]2CC(C)(N)[C@H](O)[C@H](C)O2)Oc2ccc(cc2Cl)[C@H]1O (some centres unmarked) [Compound 10, Arg(OMe)-vancomycin] | 8 (≈ 4.94 µM) | 8 (≈ 4.94 µM) | 4 (≈ 2.47 µM) | 8 (≈ 4.94 µM) | 
CC(=O)NC[C@H]1CN(c2ccc(N3CCOCC3)c(F)c2)C(=O)O1 [linezolid] |  |  |  |  | resistance acquisition on serial passaging [6]: raise resistance more rapidly and in a more pronounced manner
CN[C@H](CC(C)C)C(=O)N[C@H]1C(=O)N[C@@H](CC(N)=O)C(=O)N[C@H]2C(=O)N[C@H]3C(=O)N[C@H](C(=O)N[C@H](C(=O)N[C@@H](CCCNC(=N)N)C(=O)O)c4cc(O)cc(O)c4-c4cc3ccc4O)[C@H](O)c3ccc(c(Cl)c3)Oc3cc2cc(c3OC2OC(CO)C(O)[C@H](O)C2O[C@H]2CC(C)(N)[C@H](O)[C@H](C)O2)Oc2ccc(cc2Cl)[C@H]1O (some centres unmarked) [Compound 11, Arg-vancomycin] |  |  |  |  | MIC ([1]; Enterococcus faecalis, read-out: MIC, VanA E. faecalis BM 4166): 63 µg/mL (≈ 39.2 µM); MIC ([2]; Enterococcus faecium, ATCCBAA2317, read-out: MIC, VanA E. faecium ATCC BAA-2317): 63 µg/mL (≈ 39.2 µM)
CN(C)c1cc(NC(=O)CNC(C)(C)C)c(O)c2c1C[C@H]1C[C@H]3[C@H](N(C)C)C(O)=C(C(N)=O)C(=O)[C@@]3(O)C(O)=C1C2=O [tigecycline] |  |  |  |  | resistance acquisition on serial passaging [6]: raise resistance more rapidly and in a more pronounced manner
N=C(N)NCCCN [G3^+, H2N(CH2)3NHC(═NH2)NH2^+] |  |  |  |  | MIC ([7]; E. faecalis BM 4166, POPE 100 μg/mL, read-out: MIC, +POPE): > 800 µg/mL; MIC ([7]; E. faecalis BM 4166, read-out: MIC, −POPE): > 800 µg/mL
CN[C@H](CC(C)C)C(=O)N[C@H]1C(=O)N[C@@H](CC(N)=O)C(=O)N[C@H]2C(=O)NC3C(=O)N[C@H](C(=O)N[C@H](C(=O)NCCCCCCNC(=N)N)c4cc(O)cc(O)c4-c4cc3ccc4O)[C@H](O)c3ccc(c(Cl)c3)Oc3cc2cc(c3OC2OC(CO)C(O)[C@H](O)[C@@H]2O[C@H]2CC(C)(N)[C@H](O)[C@H](C)O2)Oc2ccc(cc2Cl)[C@H]1O (some centres unmarked) [Compound 8, G6-vancomycin] | 16 (≈ 10.1 µM) | 4 (≈ 2.52 µM) | 4 (≈ 2.52 µM) | 16 (≈ 10.1 µM) | 
CN[C@H](CC(C)C)C(=O)N[C@H]1C(=O)N[C@@H](CC(N)=O)C(=O)N[C@H]2C(=O)N[C@H]3C(=O)N[C@H](C(=O)N[C@H](C(=O)N[C@@H](CCCNC(=N)N)C(=O)O)c4cc(O)cc(O)c4-c4cc3ccc4O)[C@H](O)c3ccc(c(Cl)c3)Oc3cc2cc(c3OC2OC(CO)C(O)[C@H](O)C2O[C@H]2CC(C)(NCc3ccc(-c4ccc(Cl)cc4)cc3)[C@H](O)[C@H](C)O2)Oc2ccc(cc2Cl)[C@H]1O (some centres unmarked) [Compound 21, Arg-CBP-vancomycin] |  |  |  |  | bacterial cell membrane permeabilization [5]: reduced bacteria cell permeabilization
